In PMC11713942 (Therapeutic Advances in Infectious Disease, 2025):

How the values were obtained:
[1] = clinical; conditions: human, in vivo; for half-life: Daptomycin t1/2 (elimination half-life), IV, 0.693/kel, median (IQR)
Protocol: Tubes were centrifuged at 10,400 rpm for at least 10 min at room temperature; separated plasma was then dispensed into polypropylene-labelled tubes and stored at −80°C until the bioanalysis was carried out. […] QcH (80 µg/mL), QcM (40 µg/mL) and QcL (4 µg/mL), by serial dilution in plasma. […] Just before the analysis, patient plasma samples were thawed, and calibrators and quality controls were prepared fresh in the same matrix. Each sample was processed by protein precipitation: 50 µL of plasma was prepared in pre-labelled Eppendorf tubes®. […] In total, 200 µL of the supernatant was transferred to HPLC vials, and 5 µL was injected into the chromatographic column. The HPLC system used was a Thermo Scientific quaternary pump® (Accela pump; Thermo Fisher Scientific, San Francisco, CA, USA) interfaced with an autosampler (Accela autosampler). […] From 3.10 to 4.50 min, the column was again equilibrated to the initial conditions. […] Xcalibur 2.07 and Lcquan2.5.6 software from Thermo Scientific (San Jose, CA, USA) were utilized for the LC-MS/MS system control, data acquisition and data analysis. Calibration curves were generated using weighted (1/x^2) linear regression curves.

[2] = tested on: Staphylococcus spp. infective endocarditis; assay: Microbiological and clinical response of Staphylococcus spp. infective endocarditis; assay type: in vivo, human; conditions: all patients, both dose groups
Protocol: The monocentric, prospective, cohort study was approved by the local ethics committee. […] All participants signed an informed consent form before the initiation of treatment and data/biological samples collection. […] Due to the COVID-19 pandemic, we could not completely fulfil the study design, and patients were treated with either 8–10 mg/kg (group A) or 11–12 mg/kg (group B), as per routine clinical treatment. In six patients, PK data relative to both doses are available, as per the initial protocol. […] Microbiological failure was defined by persistent or breakthrough infection during IE treatment.

[3] = Protocol: The monocentric, prospective, cohort study was approved by the local ethics committee. […] All participants signed an informed consent form before the initiation of treatment and data/biological samples collection. […] Due to the COVID-19 pandemic, we could not completely fulfil the study design, and patients were treated with either 8–10 mg/kg (group A) or 11–12 mg/kg (group B), as per routine clinical treatment. […] Microbiological failure was defined by persistent or breakthrough infection during IE treatment.
The occurrence of CK elevation above the normal value (>170 mU/mL) and eosinophilic pneumonia was evaluated.

[4] = tested on: Staphylococcus spp.
[5] = multilevel linear mixed model
Description: In any complex structure, we can identify atomic units (in this case curves) and higher level unit (in this case patients). Treating patients as a random effect will correct standard errors and furnish an estimate of between-group variance. Introducing some covariate in a fixed part of the models helps to explain and so reduce unexplained between-group variance. Results are expressed as beta coefficient with their 95% confidence interval (95% CI) and presented with term-specific p values; the beta coefficient represents the mean variation of outcomes for unit change of quantitative predictors or between levels of categorical or ordinal predictors.
AUC0–24 determined on the fifth day of treatment, when the steady-state conditions were achieved, were calculated and compared between the two different groups of patients.

[6] = cited from earlier work

## CCCCCCCCCC(=O)N[C@@H](Cc1c[nH]c2ccccc12)C(=O)N[C@H](CC(N)=O)C(=O)N[C@@H](CC(=O)O)C(=O)N[C@@H]1C(=O)NCC(=O)N[C@@H](CCCN)C(=O)N[C@@H](CC(=O)O)C(=O)N[C@H](C)C(=O)N[C@@H](CC(=O)O)C(=O)NCC(=O)N[C@H](CO)C(=O)N[C@@H]([C@H](C)CC(=O)O)C(=O)N[C@@H](CC(=O)c2ccccc2N)C(=O)O[C@@H]1C [Daptomycin, daptomycin]
[1]
  Dose linearity of pharmacokinetics: linear daptomycin pharmacokinetics
[1]; iv, Daptomycin CL
  clearance: 8.17 mL/min
[1]; iv, group A 8–10 mg/kg daily, 15 patients
  half-life: 16.9 h
[1]; iv, group B 11–12 mg/kg daily, 14 patients
  half-life: 15.1 h
[2]
  Breakthrough infections while on treatment: without evidence of breakthrough infections
  Microbiologic response: All patients displayed a microbiologic response
  Survival at 30 days: All patients were alive
[3]; 8–12 mg/kg daily
  Eosinophilic pneumonia during treatment: none of the patients
[3]; in vivo
  CK increase during treatment: none of the patients
[4]
  MIC: < 0.5 µg/mL
[5]
  Effect of gender on AUC0–24: gender did not affect the results
[5]; 95% CI 64–483, p = 0.010
  Beta coefficient, association of AUC0–24 with dose group: 274
[6]
  Increase of systemic exposure in elderly individuals (>75 years) compared with younger (18–30 years): 58%
